One assay relates to SMMC-7721. The experiment in a line: MTT antiproliferative assay, SMMC-7721. It is filed as cell-based. The settings on record: Homo sapiens, 72 h, mean ± SD of three experiments, read-out: In vitro antiproliferative activity (IC50) SMMC-7721. The protocol:
(§1) Briefly, appropriate cells (1 × 10^4 cells/mL) were placed into 96-well plates in 100 μL of DMEM medium overnight. Then adding 100 μL of evaluated compounds into individual well for 72 h while 0.1% DMSO aqueous solution was treated as the negative control. After incubation with 30 μl MTT (5 mg/mL) for 4 h in all well, and ELISA plate reader measured absorbance of each well at 570 nm. Then calculating cytotoxicity effect of evaluated compounds through the formula: Cell inhibitory percentage (%) = (1−OD of treatment group/OD of control) × 100%.
For orientation: Tetrazolium dyes change colour on reduction, which living cells bring about.

In another assay the test system is Huh7. The experiment in a line: MTT antiproliferative assay, Huh7. It is filed as cell-based. The settings on record: Homo sapiens, Huh-7, 72 h, mean ± SD of three experiments, read-out: In vitro antiproliferative activity (IC50) Huh7. The protocol: as §1
A further assay relates to Bel7402. The experiment in a line: MTT antiproliferative assay, Bel7402. It counts as cell-based. The conditions noted are these: Homo sapiens, Bel-7402, 72 h, mean ± SD of three experiments, read-out: In vitro antiproliferative activity (IC50) Bel7402. The protocol:
as §1

For the next assay, the system named is Bel7402/5-FU. The experiment in a line: MTT antiproliferative assay, Bel7402/5-FU. The settings on record: Homo sapiens, drug-resistant HCC cells, 72 h, mean ± SD of three experiments, read-out: In vitro antiproliferative activity (IC50) Bel7402/5-FU. It is filed as cell-based. As for the experimental part: as §1
For the next assay, the target named is T1, recombinant human HDAC1 (Homo sapiens, UniProt Q13547).
T1 construct: purchased Enzo Life Sciences Inc
T1 sequence (Q13547 whole entry): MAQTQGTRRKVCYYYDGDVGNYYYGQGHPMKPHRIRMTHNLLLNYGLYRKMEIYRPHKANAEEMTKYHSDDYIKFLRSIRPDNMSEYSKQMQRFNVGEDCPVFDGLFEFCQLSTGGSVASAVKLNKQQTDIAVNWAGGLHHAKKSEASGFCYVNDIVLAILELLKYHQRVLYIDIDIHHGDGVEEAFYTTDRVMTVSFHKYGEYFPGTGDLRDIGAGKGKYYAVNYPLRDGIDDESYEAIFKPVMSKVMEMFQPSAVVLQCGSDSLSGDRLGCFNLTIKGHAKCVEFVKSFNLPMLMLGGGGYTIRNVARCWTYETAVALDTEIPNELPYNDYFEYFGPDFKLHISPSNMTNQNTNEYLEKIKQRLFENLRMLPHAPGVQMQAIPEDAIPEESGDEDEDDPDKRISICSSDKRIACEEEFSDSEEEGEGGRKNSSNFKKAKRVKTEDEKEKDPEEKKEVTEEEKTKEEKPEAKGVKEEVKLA
The experiment in a line: HDAC fluorimetric assay, HDAC1. It counts as biochemical. As for the experimental part: (§2) The assay was conducted according to the HDAC1/3/6/8 assay kit (Enzo Life Sciences Inc.). Each different concentrations of evaluated compounds were, respectively, incubated with each HDAC1/3/6/8 at coupling of corresponding HDAC substrate (Boc-Lys (Ac)-AMC) at 37°C for 60 min. Then stopping the reaction under adding lysine developer.

The next assay addresses T2, recombinant human HDAC3 (Homo sapiens, UniProt O15379).
T2 construct: purchased Enzo Life Sciences Inc
The experiment in a line: HDAC fluorimetric assay, HDAC3. The settings on record: mean ± SD of three experiments. It counts as biochemical. The protocol:
as §2

Assay [1] concerns Ac-histone H3, Ac-histone H4, Ac-α-tubulin in Bel7402/5-FU cells. The experiment in a line: Western blotting of acetylated histone H3, H4 and α-tubulin. It is filed as cell-based, human. The conditions noted are these: 2.0 and 5.0 μM, 72 h. As for the experimental part:
The HDAC, autophagy and apoptosis-related proteins were analyzed according to Western blotting assay. […]. And anti-Ac-histone H3, anti-Ac-histone H4, anti-Ac-α-tubulin, anti-Bax, anti-Bcl2, anti-H2AX (S139ph), anti-CDK1, anti-cyclin B, and anti-β-actin antibodies (Cell Signaling Technology, MA, United States) detected the target proteins after membranes were blocked with 5% fat-free milk. The peroxidase-conjugated secondary antibodies detected the bound antibodies for 1 h and visualized according to improved chemiluminescent reagent.
The data (mean ± SD) were obtained from three independent assays. *p < 0.01 vs. control.
For orientation: A western blot detects proteins with antibodies after separation by electrophoresis.

The subject of the next assay is CT-DNA. The experiment in a line: UV-visible spectroscopy titrations with CT DNA. It counts as binding, calf. The settings on record: 20 μM compound, equal increments of CT-DNA, 25°C. The protocol:
The ultraviolet spectrophotometer (UV2500, Shimadzu, Tokyo, Japan) recorded UV–visible spectroscopy under titrations at 25°C. Tris buffer (5 mM) was used to prepare Stock solutions of CT DNA (20 μM, calf thymus DNA) comprising ideal structure of double stranded DNA. Dissolving synthesized derivative in 1:1000 DMSO/Milli Q water to prepare stock solutions of them (20 μM). UV–visible absorption titrations were carried out with addition of 100 μl CT DNA solution to 4 ml solution of tested compound in quartz cuvette each time interval. Until the absorption band of complex containing synthesized derivative and CT DNA kept at a stable wavelength after adding CT DNA successfully for five times, titrations were finished. Finally, spectrophotometer noted the absorption spectra (250–500 nm).
FIGURE 7 UV-visible absorption spectra of CHC after adding equal amounts of CT DNA. Arrows indicate changes in absorbance with increasing concentrations of DNA [CHC] = 20 μM.

The test system of another assay is Bel7402/5-FU cells. The experiment in a line: Cell cycle analysis by flow cytometry. The settings on record: 2.0 and 5.0 μM, 72 h. It is filed as cell-based, human. As for the experimental part:
The collected cells were ﬁxed in 70% ethanol at 4°C overnight, and then incubated with RNase A and using PI (Sigma-Aldrich) to stain. Flow cytometry evaluated the percent of Deoxyribonucleic acid (DNA) on ﬂow cytometer (Beckman Coulter). The ModFit LT (Verity, Software House, Topsham, ME, United States) analyzed distribution of cell cycles.
FIGURE 9 CHC caused G2/M arrest in Bel7402/5-FU cells (A) Bel7402/5-FU cells were treated with CHC at different concentrations (0, 2.0, and 5.0 μM) for 72 h; (B) Quantification of cell distribution per phase. Values (mean ± SD) were obtained from three separate experiments. *p < 0.01 vs. control.
On the technique in general: Flow cytometry measures light scatter and fluorescence of single cells or particles in a stream.

For assay [2], the system named is SUMM-7721, Bel7402, Huh7, HCT116 and Bel7402/5FU cells. The experiment in a line: MTT antiproliferative assay, range over the five cancer cell lines. It is filed as cell-based. The conditions noted are these: Homo sapiens; range over drug-sensitive SUMM-7721, Bel7402, Huh7, HCT116 and drug-resistant Bel7402/5FU cells. As for the experimental part:
as §1

This note sets out measurements from article PMC7848139, “Novel Hybrid CHC from β-carboline and N-Hydroxyacrylamide Overcomes Drug-Resistant Hepatocellular Carcinoma by Promoting Apoptosis, DNA Damage, and Cell Cycle Arrest” (Frontiers in Pharmacology, 2021).

T2 sequence (O15379 whole entry): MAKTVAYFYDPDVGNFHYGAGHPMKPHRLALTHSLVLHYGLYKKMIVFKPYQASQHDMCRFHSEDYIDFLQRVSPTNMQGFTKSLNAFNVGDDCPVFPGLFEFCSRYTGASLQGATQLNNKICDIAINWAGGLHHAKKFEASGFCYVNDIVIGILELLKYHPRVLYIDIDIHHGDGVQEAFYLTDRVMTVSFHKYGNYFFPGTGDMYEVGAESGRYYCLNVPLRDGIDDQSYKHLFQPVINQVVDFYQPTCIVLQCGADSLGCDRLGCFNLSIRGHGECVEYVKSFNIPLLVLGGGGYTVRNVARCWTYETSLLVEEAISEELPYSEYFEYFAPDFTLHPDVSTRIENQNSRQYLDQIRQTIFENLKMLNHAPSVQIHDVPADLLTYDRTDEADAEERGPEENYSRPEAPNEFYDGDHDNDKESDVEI
T2 sequence (O75376 395-489 partner limits assumed): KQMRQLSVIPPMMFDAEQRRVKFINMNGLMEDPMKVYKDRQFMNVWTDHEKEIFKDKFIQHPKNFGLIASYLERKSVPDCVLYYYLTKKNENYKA

For `CN(C)c1ccc(-c2nc(C(=O)NCc3ccc(/C=C/C(=O)NO)cc3)cc3c2[nH]c2ccccc23)cc1` [CHC, (E)-N-(4-(3-(hydroxyamino)-3-oxoprop-1-en-1-yl)benzyl)-1-(4-dimethylaminophenyl)-9H-pyrido [3,4-b]indole-3-carboxamide], the IC50 in the assay with SMMC-7721 worked out at 3.27 ± 0.36 µM; in the assay with Huh7 it was 2.89 ± 0.32 µM; in the assay with Bel7402 it was 1.84 ± 0.23 µM; in the assay with Bel7402/5-FU, 2.17 ± 0.35 µM; on recombinant human HDAC1 (mean ± SD of three experiments), 0.029 ± 0.003 µM; at recombinant human HDAC3 it was 0.134 ± 0.016 µM. The compound also registered an IC50 in assay [2] of 1.84 to 3.27 µM. On recombinant human HDAC1 (compared with SAHA), the “IC50 on HDAC1 relative to SAHA” value was “approximately five-fold lower”. Moreover, at recombinant human HDAC1 (selectivity HDAC1 over HDAC3), the “fold lower IC50 on HDAC1 than on HDAC3” value stood at 4 fold. In [1], the “acetylation of H3, H4 and α-tubulin” value was “promoted the acetylation of H3, H4, and α-tubulin with increasing dose”. Further, the “change of UV-visible absorption upon adding CT-DNA” value in the assay on CT-DNA is “absorption at all wavelengths gradually decreased”. In the assay on Bel7402/5-FU cells, the cell cycle arrest result is “significantly induced cell cycle arrest at the G2/M phase in a dose-dependent manner”.
